Assays:
[1] = target: T1, PPARγ (Homo sapiens, UniProt P37231); assay: PPARγ transactivation reporter gene assay in SMMC-7721 cells; format: cell-based; conditions: SMMC-7721 cells
T1 construct: expressed in transfected cells; host or cells: SMMC-7721 or U2OS
T1 sequence (P37231 1-505): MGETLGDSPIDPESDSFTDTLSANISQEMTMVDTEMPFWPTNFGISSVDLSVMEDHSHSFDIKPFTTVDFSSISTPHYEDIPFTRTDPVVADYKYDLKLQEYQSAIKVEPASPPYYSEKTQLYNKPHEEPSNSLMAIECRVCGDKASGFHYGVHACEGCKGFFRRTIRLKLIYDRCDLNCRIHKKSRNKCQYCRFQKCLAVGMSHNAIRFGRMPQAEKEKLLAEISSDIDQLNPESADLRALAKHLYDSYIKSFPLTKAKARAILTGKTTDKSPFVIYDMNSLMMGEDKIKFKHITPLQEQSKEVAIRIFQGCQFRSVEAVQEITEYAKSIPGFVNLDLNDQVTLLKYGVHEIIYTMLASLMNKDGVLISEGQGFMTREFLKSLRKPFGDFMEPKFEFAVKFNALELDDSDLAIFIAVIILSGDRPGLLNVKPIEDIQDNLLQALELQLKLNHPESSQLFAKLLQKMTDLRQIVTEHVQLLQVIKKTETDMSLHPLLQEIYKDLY
T1 sequence (P19793 1-462 partner): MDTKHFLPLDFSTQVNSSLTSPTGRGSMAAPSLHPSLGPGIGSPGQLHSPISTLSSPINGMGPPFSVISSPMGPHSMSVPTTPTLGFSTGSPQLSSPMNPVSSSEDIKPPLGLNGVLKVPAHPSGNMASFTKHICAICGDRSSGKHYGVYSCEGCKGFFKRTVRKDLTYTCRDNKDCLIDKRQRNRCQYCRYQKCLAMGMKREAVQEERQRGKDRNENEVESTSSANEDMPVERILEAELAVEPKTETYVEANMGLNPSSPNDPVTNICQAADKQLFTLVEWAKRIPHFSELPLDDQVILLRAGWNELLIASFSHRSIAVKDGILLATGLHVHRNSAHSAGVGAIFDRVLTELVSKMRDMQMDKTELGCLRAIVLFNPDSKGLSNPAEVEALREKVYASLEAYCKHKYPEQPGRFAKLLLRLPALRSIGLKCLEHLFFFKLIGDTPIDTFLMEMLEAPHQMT

[2] = tested on: beagle dogs; assay: Heart weight in beagle dogs, chronic treatment; format: in vivo, dog; conditions: same regime (6 months), 54 mg kg^−1 (~1000 mg/m^2), data not shown
[3] = Tissue distribution of 3H-chiglitazar in rats; format: in vivo, rat; conditions: male Wistar rats, single oral dose 12.5 mg kg^−1 3H-labelled, radioactivity AUC0–24
Procedure: ^3H-chiglitazar was synthesized and provided by the Beijing Institute of Atom Energy with specific activity of 15 Ci mmol^−1 and purity >97%. Tissue distribution of ^3H-chiglitazar in rats was evaluated based on the methods described previously. Briefly, male Wistar rats (~220 g in body weight, 12-week old) were randomly divided into 4 groups (5 per group). After fasted overnight, rats were orally administered with single dose of 12.5 mg kg^−1 of ^3H-chiglitazar (radiation dose 31.7 MBq kg^−1). Rats in different groups were sacrificed at 1.5, 4, 8, and 24 h after dosing. Blood (5–9 mL) was collected via cardiac puncture at the time of sacrifice. […] 1 mL of scintillation fluid was added to each well, and radioactivity was measured by a scintillation counter (Perkin Elmer, Waltham, MA, USA).
Figure 5 Influence on heart weight and tissue distribution of chiglitazar in rats. […] 24 h after the last dosing, animals were sacrificed and the heart weight was evaluated. *P < 0.05 compared with control; n = 5 per group. […] Rats were sacrificed at 1.5, 4, 8, and 24 h after treatment (n = 5 per time point), and various tissues/organs as indicated were taken for radioactivity measurement. The accumulated area under curves through 0 to 24 h (AUC0–24) was calculated based on individual tissue distribution measured at each time point. […] Data are expressed as mean ± SE.

SMILES: O=C(c1ccc(F)cc1)c1ccccc1NC(Cc1ccc(OCCn2c3ccccc3c3ccccc32)cc1)C(=O)O (centres unmarked) [Chi, 2-[(2-(4-fluorobenzoyl)phenyl)amino]-3-[4-(2-carbazolylethoxy)-phenyl]-propionic acid]
- EC50 ([1]; 24 h treatment, luciferase reporter, hRXR cotransfected, ia: inactive at 10 μM, read-out: PPARγ EC50): 90 ± 20 nM
- PPARγ % Max ([1]; max response compared with Ros at 1 μM): 105%
- Heart weight [2]: did not induce significant increase
- Tissue distribution: level in kidney, adipose tissue and heart [3]: low levels
- Tissue distribution: level in plasma, liver and pancreas [3]: high levels

— PMC3486420, “In Vitro and In Vivo Characterizations of Chiglitazar, a Newly Identified PPAR Pan-Agonist” (PPAR Research, 2012)
